Values joined by “and” are separate entries in the source; they are usually repeats but may differ in a detail not shown here. Identical values can stand only once.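 The compound was tested at five concentrations on cells cultured in 96-well plates, with a 48-hour exposure period. The concentration for 50% growth inhibition is given as GI50. TGI is the concentration that stops growth completely.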
How the values were obtained:
Test in all cases: NCI-60 cell line screen, 48 h
SR leukemia = tested on: SR leukemia
HOP-62 NSCLC = tested on: HOP-62 NSCLC
T-47D breast = tested on: T-47D breast
MDA-MB-231 breast = tested on: MDA-MB-231 breast
OVCAR-5 ovarian = tested on: OVCAR-5 ovarian
CCRF-CEM leukemia = tested on: CCRF-CEM leukemia
NCI-H226 lung = tested on: NCI-H226 lung
NCI-H460 lung = tested on: NCI-H460 lung
M14 melanoma = tested on: M14 melanoma
NCI/ADR-RES ovarian = tested on: NCI/ADR-RES ovarian

Structure (SMILES) | TGI (SR leukemia) | GI50 (HOP-62 NSCLC) | TGI (HOP-62 NSCLC) | GI50 (T-47D breast) | TGI (T-47D breast) | GI50 (MDA-MB-231 breast) | TGI (MDA-MB-231 breast) | GI50 (OVCAR-5 ovarian) | TGI (OVCAR-5 ovarian) | GI50 (CCRF-CEM leukemia) | TGI (NCI-H226 lung) | GI50 (NCI-H460 lung) | TGI (NCI-H460 lung) | GI50 (M14 melanoma) | TGI (M14 melanoma) | GI50 (NCI/ADR-RES ovarian) | TGI (NCI/ADR-RES ovarian) | TGI (CCRF-CEM leukemia) | GI50 (SR leukemia) | GI50 (NCI-H226 lung)
CCCC(=O)Nc1cn(COC)c(C(=O)N2C[C@@H]3C[C@]34C2=CC(=O)c2[nH]cc(C)c24)n1 | 0.488 µM | 3.91 µM | 50 µM and 15.2 µM | 7.01 µM | 38.4 µM and 21.1 µM | 19.9 µM | 27 µM and 51.1 µM | 3.3 µM | 50 µM and 9.52 µM | 1.96 µM | 34.1 µM | 2.44 µM | 13.9 µM and 5.08 µM | 4.12 µM | 50 µM and 16.2 µM | 14.9 µM | 20.7 µM and 28.9 µM |  |  | 
NS(=O)(=O)c1ccc(N=Nc2c(O)c(C(=O)O)cc3ccccc23)cc1 | > 96.1 µM |  | > 100 µM |  | > 100 µM |  | > 100 µM |  | > 100 µM |  | > 100 µM |  | > 100 µM |  | > 100 µM |  | > 100 µM | > 100 µM |  | 
Cc1c(N(C)C)ccc2c(=O)c3cccc(CC(=O)O)c3oc12 | > 100 µM |  | > 100 µM |  | > 100 µM |  | > 100 µM |  | > 100 µM |  | > 100 µM |  | > 100 µM |  | > 100 µM |  | > 100 µM | > 100 µM |  | 
O=C(Nc1cc(C(F)(F)F)cc(C(F)(F)F)c1)c1cc(Cl)ccc1O |  | 0.26 µM and 0.355 µM | 1.2 µM and 4.38 µM | 0.15 µM and 0.194 µM | 0.604 µM and 1.24 µM | 0.241 µM and 0.225 µM | > 2.17 µM and 2.63 µM | 0.305 µM and 0.357 µM | > 5.03 µM and 15.9 µM | 0.237 µM and 0.378 µM | 0.992 µM and 1.59 µM | 0.271 µM and 0.29 µM | 1.42 µM and 1.94 µM | 0.291 µM and 0.273 µM | 1.25 µM and 1.54 µM | 0.227 µM and 0.257 µM | > 2.76 µM and 3.87 µM | 1.3 µM and 7.79 µM | 0.218 µM and 0.228 µM | 0.262 µM and 0.317 µM
CCC[CH2][Sn]([CH2]CCC)([O]C(=O)c1ccc(OC)c(OC)c1OC)[O][Sn]([CH2]CCC)([CH2]CCC)[O]C(=O)c1ccc(OC)c(OC)c1OC | > 100 µM | 1.61 µM | 2.98 µM | 0.0311 µM | 0.295 µM | 0.586 µM | 1.89 µM | 1.52 µM | 2.85 µM | 0.0133 µM | 0.89 µM | 0.895 µM | 2.55 µM | 0.267 µM | 0.583 µM | 0.843 µM | 2.14 µM | 0.161 µM | 0.315 µM | 0.33 µM
N=c1c2c(-c3ccccc3)c(-c3ccccc3)n(Cc3ccccc3)c2ncn1C1CCC(O)CC1 (stereo not drawn) | 2.2 µM | 0.261 µM | 14.8 µM | 0.911 µM | 18.3 µM | 1.29 µM | 4.65 µM | 5.84 µM | 22.4 µM | 0.321 µM | 16.8 µM | 0.0542 µM | 1.5 µM | 0.894 µM | 2.38 µM | 0.717 µM | 18.4 µM | 9.25 µM | 0.034 µM | 0.517 µM
COc1cc(N=Nc2ccc(O)c3ncccc23)c2ncccc2c1 | > 100 µM |  |  | 3.23 µM | > 100 µM | 3.16 µM | > 100 µM | 7.3 µM | > 100 µM | 0.459 µM | > 100 µM | 3.13 µM | > 100 µM | 2.66 µM | > 100 µM | 1.02 µM | 15.5 µM | > 100 µM | 2.2 µM | 6.07 µM
COc1cc(N(CCC#N)CCC#N)ccc1/C(N=Nc1ccc(Cl)cc1)=N/NC(=O)c1cc(Br)ccc1O | > 150 µg/mL |  |  | 69.9 µg/mL | > 150 µg/mL | 38.8 µg/mL | > 150 µg/mL | > 150 µg/mL | > 150 µg/mL | 74 µg/mL | 128 µg/mL | 53.6 µg/mL | > 150 µg/mL | 58.5 µg/mL | > 150 µg/mL | 53.2 µg/mL | > 150 µg/mL | > 150 µg/mL | 96.3 µg/mL | 32.4 µg/mL
COc1ccc(-c2ccc(=O)oc2C#Cc2cc(OC)c(OC)c(OC)c2)cc1O | > 100 µM | 1.65 µM | > 100 µM | 6.4 µM | > 100 µM | 0.905 µM | 10.1 µM | 2.49 µM | 33.9 µM | 0.331 µM | > 100 µM | 0.287 µM | 4.59 µM | 0.521 µM | > 100 µM | 0.262 µM | > 43.8 µM | > 100 µM | 0.0708 µM | 1.42 µM
S=c1[nH]c(=S)c2cc3ccccc3nc2[nH]1 |  | > 100 µM | > 100 µM | 11.1 µM | > 100 µM | 51 µM | > 100 µM | > 100 µM | > 100 µM | 5.21 µM | > 100 µM | 73.2 µM | > 100 µM | > 100 µM | > 100 µM | > 100 µM | > 100 µM | > 100 µM |  | > 100 µM
CN(C)C1CCN(C(=O)c2ccc(NC(=O)Nc3ccc(-c4nc(N5CCOCC5)c5cccn5n4)cc3)cc2)CC1 | > 54 µM | 0.0573 µM | 2.82 µM | 0.0134 µM | 0.0664 µM | 0.0491 µM | 11.1 µM | 0.0521 µM | 16.1 µM | 0.0483 µM | 2.99 µM | 0.0587 µM | 13.6 µM | 0.281 µM | 9.15 µM | 59.5 µM | > 100 µM | 4.69 µM | 0.0562 µM | 0.0435 µM
COc1cc(C(=O)N2CCN(C(=O)c3cc(OC)c(OC)c(OC)c3)C2=S)cc(OC)c1OC |  | 15.2 µM | 38.9 µM | 13.1 µM | 40.3 µM | 16.7 µM | 36 µM | 23.2 µM | 57.7 µM | 12.2 µM | 39.1 µM | 27.2 µM | 73.6 µM | 16.8 µM | 34 µM | 26.8 µM | 74.5 µM | 34.1 µM |  | 19.5 µM
NC1CCN(Cc2ccccc2)CC1 | > 100 µM |  |  | > 100 µM | > 100 µM | > 100 µM | > 100 µM | > 100 µM | > 100 µM | > 100 µM |  | > 100 µM | > 100 µM | > 100 µM | > 100 µM | > 100 µM | > 100 µM | > 100 µM | > 100 µM | 
CN1C(=O)c2ccccc2NC(=O)C12O[C@@H]2c1ccccc1 (stereo partly drawn) | > 100 µM |  | > 100 µM |  | > 100 µM |  | > 100 µM |  | > 100 µM |  |  |  | > 100 µM |  | > 100 µM |  | > 100 µM | > 100 µM |  | 

From PubChem BioAssay (NCI)
